ChEMBL document CHEMBL3352299, “Antiproliferative 4-(1,2,4-oxadiazol-5-yl)piperidine-1-carboxamides, a new tubulin inhibitor chemotype” (Bioorg Med Chem Lett, 2014)

Tests used:
A549 = test: Antiproliferative activity against human A549 cells after 3 days by fluorescence assay; format: functional; conditions: A549, 72 h
CAKI-1 = test: Antiproliferative activity against human CAKI-1 cells after 3 days by fluorescence assay; format: functional; conditions: CAKI-1, 72 h
U-251 = test: Antiproliferative activity against human U251 cells after 3 days by fluorescence assay; format: functional; conditions: U-251, 72 h
KM12 = test: Antiproliferative activity against human KM12 cells after 3 days by fluorescence assay; format: functional; conditions: KM12, 72 h
Tubulin (Homo sapiens) [1] = biological target: T1, Tubulin (Homo sapiens) (UniProt P68371+Q9H4B7+P0DPH7+P68366+Q13509+Q71U36+P04350+Q3ZCM7+P07437+P68363+Q9BQE3+Q6PEY2+Q13885+Q9BVA1+Q9BUF5); test: Displacement of [3H]-colchicine from tubulin (unknown origin) at 50 uM after 10 mins by turbidimetrically relative to control; format: protein-complex assay
[2] = Antiproliferative activity against human LOXIMVI cells after 3 days by fluorescence assay; format: functional; conditions: LOX IMVI, 72 h
SW-620 = test: Antiproliferative activity against human SW620 cells after 3 days by fluorescence assay; format: functional; conditions: SW-620, 72 h
MDA-MB-468 = test: Antiproliferative activity against human MDA-MB-468 cells after 3 days by fluorescence assay; format: functional; conditions: MDA-MB-468, 72 h
[3] = Antiproliferative activity against human UACC62 cells after 3 days by fluorescence assay; format: functional; conditions: UACC-62, 72 h
Tubulin (Homo sapiens) [4] = biological target: T1, Tubulin (Homo sapiens); test: Displacement of [3H]-colchicine from tubulin (unknown origin) at 1 uM after 10 mins by turbidimetrically relative to control; format: protein-complex assay
MDA-MB-435 = test: Antiproliferative activity against human MDA-MB-435 cells after 3 days by fluorescence assay; format: functional; conditions: MDA-MB-435, 72 h
[5] = Antiproliferative activity against human NCI-ADR-RES cells after 3 days by fluorescence assay; format: functional; conditions: 72 h
NCI-H23 = test: Antiproliferative activity against human NCI-H23 cells after 3 days by fluorescence assay; format: functional; conditions: NCI-H23, 72 h
Malme-3M = test: Antiproliferative activity against human MALME-3M cells after 3 days by fluorescence assay; format: functional; conditions: 72 h
[6] = Antiproliferative activity against human PC3 cells after 3 days by fluorescence assay; format: functional; conditions: PC-3, 72 h
[7] = Antiproliferative activity against human OVCAR8 cells after 3 days by fluorescence assay; format: functional; conditions: OVCAR-8, 72 h
MDA-MB-231 = test: Antiproliferative activity against human MDA-MB-231 cells after 3 days by fluorescence assay; format: functional; conditions: MDA-MB-231, 72 h
MCF7 = test: Antiproliferative activity against human MCF7 cells after 3 days by fluorescence assay; format: functional; conditions: MCF7, 72 h
NCI-H460 = test: Antiproliferative activity against human NCI-H460 cells after 3 days by fluorescence assay; format: functional; conditions: NCI-H460, 72 h
[8] = Antiproliferative activity against human EKVX cells after 3 days by fluorescence assay; format: functional; conditions: 72 h
A498 = test: Antiproliferative activity against human A498 cells after 3 days by fluorescence assay; format: functional; conditions: A498, 72 h
786-0 = test: Antiproliferative activity against human 786-0 cells after 3 days by fluorescence assay; format: functional; conditions: 786-0, 72 h
[9] = Antiproliferative activity against human SF539 cells after 3 days by fluorescence assay; format: functional; conditions: SF-539, 72 h
[10] = Antiproliferative activity against human Hs 578T cells after 3 days by fluorescence assay; format: functional; conditions: 72 h
M14 = test: Antiproliferative activity against human M14 cells after 3 days by fluorescence assay; format: functional; conditions: M14, 72 h
Tubulin = test: Displacement of [3H]-colchicine from tubulin (unknown origin) after 10 mins by turbidimetrically; format: protein-complex assay, Homo sapiens
HT-29 = test: Antiproliferative activity against human HT-29 cells after 3 days by fluorescence assay; format: functional; conditions: HT-29, 72 h
NCI-H226 = test: Antiproliferative activity against human NCI-H226 cells after 3 days by fluorescence assay; format: functional; conditions: NCI-H226, 72 h
[11] = Antiproliferative activity against human BT549 cells after 3 days by fluorescence assay; format: functional; conditions: BT-549, 72 h
SNB-75 = test: Antiproliferative activity against human SNB75 cells after 3 days by fluorescence assay; format: functional; conditions: SNB-75, 72 h
HOP-62 = test: Antiproliferative activity against human HOP62 cells after 3 days by fluorescence assay; format: functional; conditions: HOP-62, 72 h
TK-10 = test: Antiproliferative activity against human TK10 cells after 3 days by fluorescence assay; format: functional; conditions: TK-10, 72 h
[12] = Antiproliferative activity against human OVCAR4 cells after 3 days by fluorescence assay; format: functional; conditions: OVCAR-4, 72 h
DU-145 [13] = test: (§1) Antiproliferative activity against human DU145 cells after 3 days by fluorescence assay; format: functional; conditions: DU-145, 72 h
SN12C = test: Antiproliferative activity against human SN12C cells after 3 days by fluorescence assay; format: functional; conditions: 72 h
[14] = Antiproliferative activity against human COLO205 cells after 3 days by fluorescence assay; format: functional; conditions: COLO 205, 72 h
DU-145 [15] = test: as §1; format: functional; conditions: DU-145, 72 h; remark: listed apart in the source
[16] = Antiproliferative activity against human UO31 cells after 3 days by fluorescence assay; format: functional; conditions: UO-31, 72 h
ACHN = test: Antiproliferative activity against human ACHN cells after 3 days by fluorescence assay; format: functional; conditions: 72 h
IGROV-1 = test: Antiproliferative activity against human IGROV1 cells after 3 days by fluorescence assay; format: functional; conditions: IGROV-1, 72 h
[17] = Antiproliferative activity against human HCC2998 cells after 3 days by fluorescence assay; format: functional; conditions: HCC 2998, 72 h
[18] = Antiproliferative activity against human OVCAR3 cells after 3 days by fluorescence assay; format: functional; conditions: OVCAR-3, 72 h
SF-268 = test: Antiproliferative activity against human SF268 cells after 3 days by fluorescence assay; format: functional; conditions: SF-268, 72 h
T47D = test: Antiproliferative activity against human T47D cells after 3 days by fluorescence assay; format: functional; conditions: 72 h
SNB-19 = test: Antiproliferative activity against human SNB19 cells after 3 days by fluorescence assay; format: functional; conditions: SNB-19, 72 h
[19] = Antiproliferative activity against human OVCAR5 cells after 3 days by fluorescence assay; format: functional; conditions: OVCAR-5, 72 h
SK-MEL-2 = test: Antiproliferative activity against human SK-MEL-2 cells after 3 days by fluorescence assay; format: functional; conditions: SK-MEL-2, 72 h
HL-60(TB) = test: Antiproliferative activity against human HL-60(TB) cells after 3 days by fluorescence assay; format: functional; conditions: HL-60, 72 h
SK-MEL-28 = test: Antiproliferative activity against human SK-MEL-28 cells after 3 days by fluorescence assay; format: functional; conditions: SK-MEL-28, 72 h
[20] = Antiproliferative activity against human MOLT4 cells after 3 days by fluorescence assay; format: functional; conditions: MOLT-4, 72 h
K562 = test: Antiproliferative activity against human K562 cells after 3 days by fluorescence assay; format: functional; conditions: K562, 72 h
[21] = Antiproliferative activity against human SKOV3 cells after 3 days by fluorescence assay; format: functional; conditions: SK-OV-3, 72 h
[22] = Antiproliferative activity against human UACC257 cells after 3 days by fluorescence assay; format: functional; conditions: UACC-257, 72 h
SR = test: Antiproliferative activity against human SR cells after 3 days by fluorescence assay; format: functional; conditions: 72 h
[23] = Antiproliferative activity against human RXF393 cells after 3 days by fluorescence assay; format: functional; conditions: RXF 393, 72 h
[24] = Antiproliferative activity against human HOP92 cells after 3 days by fluorescence assay; format: functional; conditions: HOP-92, 72 h
[25] = Antiproliferative activity against human HCT15 cells after 3 days by fluorescence assay; format: functional; conditions: HCT-15, 72 h
[26] = Antiproliferative activity against human HCT116 cells after 3 days by fluorescence assay; format: functional; conditions: HCT-116, 72 h
CCRF-CEM = test: Antiproliferative activity against human CCRF-CEM cells after 3 days by fluorescence assay; format: functional; conditions: 72 h
SK-MEL-5 = test: Antiproliferative activity against human SK-MEL-5 cells after 3 days by fluorescence assay; format: functional; conditions: SK-MEL-5, 72 h
Tubulin (Homo sapiens) [27] = biological target: T1, Tubulin (Homo sapiens); test: Displacement of [3H]-colchicine from tubulin (unknown origin) at 5 uM after 10 mins by turbidimetrically relative to control; format: protein-complex assay
[28] = Antiproliferative activity against human SF295 cells after 3 days by fluorescence assay; format: functional; conditions: SF-295, 72 h
[29] = Antiproliferative activity against human RPMI8226 cells after 3 days by fluorescence assay; format: functional; conditions: RPMI-8226, 72 h
NCI-H322M = test: Antiproliferative activity against human NCI-H322M cells after 3 days by fluorescence assay; format: functional; conditions: 72 h
NCI-H522 = test: Antiproliferative activity against human NCI-H522 cells after 3 days by fluorescence assay; format: functional; conditions: NCI-H522, 72 h

## COc1cccc(NC(=O)N2CCC(c3nc(-c4ccc(C)cc4)no3)CC2)c1
A549
  GI50: 5.13 µM
CAKI-1
  GI50: 5.75 µM
U-251
  GI50: 4.17 µM
KM12
  GI50: 3.31 µM
Tubulin (Homo sapiens) [1]
  inhibition: 19%
[2]
  GI50: 5.5 µM
SW-620
  GI50: 3.98 µM
MDA-MB-468
  GI50: 2.45 µM
[3]
  GI50: 6.61 µM
Tubulin (Homo sapiens) [4]
  inhibition: 5.7%
MDA-MB-435
  GI50: 0.537 µM
[5]
  GI50: 2.75 µM
NCI-H23
  GI50: 6.03 µM
Malme-3M
  GI50: 4.17 µM
[6]
  GI50: 4.37 µM
[7]
  GI50: 7.08 µM
MDA-MB-231
  GI50: 18.2 µM
MCF7
  GI50: 3.24 µM
NCI-H460
  GI50: 3.47 µM
[8]
  GI50: 6.76 µM
A498
  GI50: 5.01 µM
786-0
  GI50: 6.03 µM
[9]
  GI50: 3.47 µM
[10]
  GI50: 5.5 µM
M14
  GI50: 3.24 µM
Tubulin
  IC50: 3 µM
HT-29
  GI50: 3.31 µM
NCI-H226
  GI50: 9.12 µM
[11]
  GI50: 13.8 µM
SNB-75
  GI50: 7.94 µM
HOP-62
  GI50: 4.68 µM
TK-10
  GI50: 9.55 µM
[12]
  GI50: 7.24 µM
DU-145 [13]
  GI50: 4.5 µM
SN12C
  GI50: 11 µM
[14]
  GI50: 3.8 µM
DU-145 [15]
  GI50: 3.63 µM
[16]
  GI50: 6.46 µM
ACHN
  GI50: 5.89 µM
IGROV-1
  GI50: 9.12 µM
[17]
  GI50: 5.01 µM
[18]
  GI50: 2.63 µM
SF-268
  GI50: 7.24 µM
T47D
  GI50: 5.5 µM
SNB-19
  GI50: 8.71 µM
[19]
  GI50: 13.2 µM
SK-MEL-2
  GI50: 11 µM
HL-60(TB)
  GI50: 0.603 µM
SK-MEL-28
  GI50: 13.2 µM
[20]
  GI50: 5.5 µM
K562
  GI50: 0.355 µM
[21]
  GI50: 4.47 µM
[22]
  GI50: 16.6 µM
SR
  GI50: 0.417 µM
[23]
  GI50: 4.07 µM
[24]
  GI50: 3.31 µM
[25]
  GI50: 4.9 µM
[26]
  GI50: 4.79 µM
CCRF-CEM
  GI50: 3.55 µM
SK-MEL-5
  GI50: 3.39 µM
Tubulin (Homo sapiens) [27]
  inhibition: 8.2%
[28]
  GI50: 3.09 µM
[29]
  GI50: 3.31 µM
NCI-H322M
  GI50: 11.7 µM
NCI-H522
  GI50: 4.07 µM
